Data published in patent US5686423A, “Di-and tri-peptide mimetic compounds for Parkinson's disease” (Department of Health, the Executive Yuan, Republic of China, priority 1996, dated 1997).
Residues, ends and D or L forms follow the SMILES beside them.

How the values were obtained:
[1] = tested on: 6-hydroxydopamine-lesioned male Wistar rats; assay: Rotational behavior of nigrostriatal-lesioned rats elicited by (+)-methamphetamine; assay type: in vivo, rat; details: for rotation: control saline 552 ± 47
Source text: Anti-Parkinsonism effect was determine by virtue of measuring the change in rotational behavior of 6-hydroxydopamine-lesioned male Wistar rats [Hudson J. L.; Levin. D. R.; Hoffer, B. J. A Sixteen-Channel Automated Rotometer System For Reliable Measurement of Turning Behavior in 6-Hydroxydopamine Lesioned and Transplanted Rats. Cell Transplantation 1993, 2, 507-514; Hudson J. L, Van Horne C. G.; Stromberg I.; Brock. S.; Clayton, J.; Masserano, J.; Hoffer, B. J.; Gerhardt, G. A. Correlation of Apomorphine and Amphetamine Induced Turning With Nigrostriatal Dopamine Content in Unilateral 6-Hydroxydopamine Lesioned Rats. Brain Res. 1993, 626, 167-174].
Twenty male Wistar rats weighing 150-175 grams were used. Within a 36 h window, all rats were lesioned by the same investigator using the following procedure. Surgical anesthesia was produced by i.p. injection of 30 mg/kg of sodium pentobarbtal. The animals were placed in a stereotaxic frame and the skin over the skull was incised and reflected. Bregma was used as the coordinate origin and a burr-hole was placed in the cranium over the injection site. After a small-needle puncture of the dura and lowering into the brain parenchyma, a solution of […] of 6-hydroxydopamine HCl was injected using a microliter syringe and a 26 gauge dome-tipped needle (AP-4.4 mm, ML 1.3 mm. DV -7.8 mm). The needle was removed after a 1 min delay and the wound was closed. Convalescence occurred in home cages with food and water ad libitum for the duration of the experiment.
On each testing day, the rats were placed into rotometer bowls and were allowed to acclimatize for 10 min. They then received a subcutaneous dose of (+)-methamphetamine (4 mg/kg in vehicle) and were allowed to move within the bowls for at least 60 min, or until they stopped turning. The rats were returned to the home cages after the experiment until next testing session.
The degree of dopamine depletion was evaluated by monthly testing of rotational behavior in a multichannel rotometer system after methamphetamine (4 mg/Kg, s.c.) injection.

[2] = cited from earlier work
[3] = 37° C., 2 minutes of incubation
Experimental: Mucosa suspension was prepared from the intestine of male Wistar rats according to the method of Hu et al. [Pharm. […] After abdominal incision the intestinal segment between the beginning of the jejunum and the end of the ileum was removed and everted to let the interior exposed. The mucosal layer was washed with normal saline and then scraped with glass microscope slides. The scraping was collected, diluted 1:9 (v/v) with ice cold isotonic sucrose solution, and ultrasonicated for 200 seconds. The suspension was centrifuged at 2500 rpm for 5 minutes. The supernatant suspension was stored in an ice bath before subjected to degradation study. All the stability studies were conducted right after the mucosa suspension was prepared. One hundred microliter of a methanolic solution of the test compound (1 mg/mL) was diluted with 2.4 mL of an isotonic mannitol buffer solution (pH=6.5) as the stock solution. One hundred microliter of the stock solution was mixed with equal volume of the mucosal suspension. The mixture was incubated in a 37° C. water bath and subjected to sampling at time intervals between zero to 60 minutes. Two hundred microliter of each sampled solution was denatured with MeOH (0.8 mL) and centrifuged at 14000 rpm for 5 minutes. Twenty to one hundred microliters each of the solution was subjected to HPLC assay on a Lichrospher 100 RP-18 column (E. Merck, 5 μm, 250×3.9 mm). […]

pulmonary artery = details: continuous perfusion of 1 mg/mL for one min
Experimental: (§1) Each experiment was repeated at least three times. The mean responses before and after drug treatment were compared by means of Student's t test, with p<0.05, indicating significance. The contractile force of both pulmonary artery and vas deferences was elicited after continuous perfusion of dopamine (1 mg/mL) for one min.
(§2) Male guinea pigs (250-350 g) were stunned and bled. The vas deferences and pulmonary artery were isolated. A piece of the smooth muscle (about 1 mm wide and 7 mm long) was dissected. The isolated part was mounted vertically on an organ bath (1 mL capacity), kept at 35° C. and superfused with a physiological solution at a constant rate of about 2 mL /min (35° C.). The normal physiological solution had the following composition: NaCl (117 mM), KCl (5.9 mM), CaCl2 (2.4 mM), MgCl2 (1.2 mM), D-glucose (11.8 mM) and Tris 20 (pH 7.4 at 35° C.), aerated with 100% oxygen. Drugs tested were perfused for one min and then superfused with normal physiological solution or otherwise indicated. Tension was recorded isometrically by means of a Grass FT03 tranducer connected to a Grass model 7E polygraph or by a Gould UC2 transducer connected to a Gould 2200S recorder. Each experiment was repeated at least three times with different preparations.

vas deferences = details: continuous perfusion of 1 mg/mL for one min
Experimental: as §1, §2

[4] = rat jejunal perfusion, perfusate 0.1 mM; for plasma conc. (mean ± s.e.m): blood drawn after 90 min perfusion
Experimental: The intestinal absorption of the prodrugs was then investigated by measuring the plasma concentration in rats upon in situ single-pass rat jejunal perfusion, and by determining the fraction of absorption in rabbits with data obtained from single-dose intra-artery injection and oral administration.
Perfusion solutions containing 5 mM KCl, 100 mM NaCl, 10 mM MES, 6 mM D-glucose, the testing compound, and 0.02% ascorbic acid as an anti-oxidant, were adjusted to pH 6 with NaOH. Osmolarity, measured by a Wescor 5500 vapor pressure osmometer (Wescor Company, Logan, Utah, U.S.A.), was adjusted to 300±10 mOsm/kg using sodium chloride. […] In order to prevent test compounds from oxidation, perfusion solutions were freshly prepared with nitrogen gas bubbled through for 10 min before each perfusion experiment.
Male Wistar Rats were fasted overnight (16-20 h) prior to anesthesia induced by i.m. injection of urethane (1.5 g/kg body weight). Following induction of anesthesia, rats were put on a heating pat to maintain body temperature. A midline longitudinal incision was made and a 5 to 10 cm jejunal segment was cannulated at the distal end to drain perfusates into collecting tubes. The entire surgical area was then covered with parafilm to minimize temperature reduction through evaporation. Tubing and syringes were covered with aluminum foil to retard the oxidation of testing compounds. Perfusion solution was pumped through the jejunal segment at a flow rate of 0.2 mL/min by a syringe pump (Stoelting, KD Scientific, U.S.A.). The jejunal segment was prewashed initially with drug-free buffer for 10 min and then pumped with test solution. Outlet tubing samples were collected every 10 min for 6 collection periods after water and solute transport reached steady-state. After 90 min perfusion, blood sample (1-2 mL) was drawn by cardiac puncture. The blood samples were centrifuged at 3000 rpm for 10 min, the plasma were separated and stored at -20° C. before analysis. The samples were filtered through 0.2 μm membrane filters before injecting into HPLC system.
Assays of L-dopa and test compounds were performed on HPLC consisting an autosampler (Model 717, Waters, Millipore, Milford, Mass., U.S.A.), a solvent delivery pump (Model 600E, Waters), a tunable absorbence detector (Model 484 or 486, Waters), and a PC 486 computer with a chromatography manager software (Millennium 2010, Millipore). L-Dopa from the perfusate was assayed on a Spheri 5RP-18 column (ABI, 5 μm, 250×4.6 mm) at flow rate of 1.0 mL/min with mobile phase comprising MeOH:0.05M NH4 H2 PO4 buffer (pH 4.6) containing 0.02M sodium 1-pentanesulfonate=10:90 (v/v). […] Standards were injected during each assay. Linearity of standard peak area ratios was validated. Numerical computation on data were performed on Statworks and are represented as mean±standard error of mean (s.e.m) for n experiments. Treatment differences were evaluated by t test.

[5] = Single dose oral and intra-artery bioavailability study in rabbits; details: oral vs intra-artery, 10 mg/Kg, six rabbits, mean ± s.e.m.
Experimental: Prodrug 1a was subjected to single dose oral and intra-artery (i.a.) administrations on 6 fasted New Zealand white rabbits for oral bioavailability study.
Single intra-artery dose of prodrug 1a or the parent drug was administered in six fasted New Zealand white rabbits, weighting 2.5-3.0 Kg, via ear artery. Blood samples were withdrawn with heparinized syringes from the contralateral artery at time intervals ranged from 1 min to 3.5 h. Freshly drawn heparinized blood was treated with extraction buffer (1 mol of Tris and 20 g of EDTA per liter, pH 8.6) and then extracted with alumina (100 g). The alumina was extracted with acidic buffer and the extract subjected to HPLC analysis.
After wash-out period, the same rabbits were used for single oral dose administration of prodrug la with a feeding tube. […] Prodrug 1a and dihydroxybenzylamine,used as an internal standard, were detected with electrochemical detector at 0.750 V of oxidation potential. The maximal plasma concentration (Cmax) and the time to the maximal plasma concentration (tmax) were determined. The area under the plasma concentration-time profile (AUC) and the terminal half-life (t1/2) were calculated. Fraction of absorption was calculated from the pharmacokinetic parameters (tmax, Cmax, AUC, t1/2) obtained from oral and intra-artery administrations.

[6] = i.p. 1-2 hours prior to (+)-methamphetamine

For `NC(Cc1ccc(O)c(O)c1)C(=O)O` [L-dopa, 2-amino-3-(3,4-dihydroxyphenyl)propanoic acid], the rotation ([1]; 4.2 mg/kg i.p., (+)-methamphetamine injected 1 h after treatment) is listed as 287 ± 86 turns/h, the “AUCCSF /AUCplasma” value ([2]; Parkinson disease, literature (Olanow et al. 1991)) is listed as 12/100 and the oral bioavailability ([2]; at up to 1000 mg/day) is listed as 33%.
In the case of `NCC(=O)N[C@@H](Cc1ccccc1)C(=O)O` [L-glycine-L-phenylalanine] (H-Gly-Phe-OH), the “fraction degraded in rat intestinal mucosa suspension” value [3] is reported as 81%.
In the case of `NCCc1ccc(O)c(O)c1` [dopamine], the “contraction of pulmonary artery (resting tension)” value (pulmonary artery) is reported as “elicited” and the “contraction of vas deferences (resting tension)” value (vas deferences) is reported as “elicited”.
With D-Phenylglycine-L-serine-L-dopa [2a] the “plasma conc. (mean ± s.e.m)” value [4] was 8.49 ± 1.36.
For D-p-hydroxyphenylglycine-L-dopa [1b], the “plasma conc. (mean ± s.e.m)” value [4] was 0.60 ± 0.01.
In the case of “D-p-hydroxyphenylglycine-L-proline-L-dopa [compound 2d]”, the rotation ([1]; 9.6 mg/kg i.p., (+)-methamphetamine injected 1 h after treatment) is reported as 223 ± 95 turns/h, the rotation ([1]; 9.6 mg/kg i.p., (+)-methamphetamine injected 2 h after treatment) is reported as 247 ± 67 turns/h and the “anti-rotation activity compared with L-dopa (in words)” value [1, 6] is reported as “slightly higher than that of L-dopa”. For the same compound, the “effect on (+)-methamphetamine-induced rotation (in words)” value [1, 6] was “significantly prohibited”.
In the case of “D-p-hydroxyphenylglycine-L-serine-L-dopa [2b]”, the “plasma concentration, fold higher than that of L-dopa” value [4] is reported as 60-100 fold and the “plasma conc. (mean ± s.e.m)” value [4] is reported as 62.1 ± 3.53.
With D-phenylglycine-L-dopa [compound 1a] the “plasma concentration, fold higher than that of L-dopa” value [4] was 60-100 fold, the “plasma conc. (mean ± s.e.m)” value [4] was 64.65 ± 5.45 and the fraction of absorption [5] was 76 ± 24%.
In the case of L-dopa-D-phenylglycine [1c], the “plasma concentration, fold higher than that of L-dopa” value [4] is reported as 60-100 fold and the “plasma conc. (mean ± s.e.m)” value [4] is reported as 104.00 ± 12.98.
